# In ChEMBL document CHEMBL3885861, “Open TG-GATES”:
# Organism: Rattus norvegicus
# Assay: Open TG-GATES - Regimen: Single
# Type: toxicity, organism-based, Sprague-Dawley
# Design: regimen Single, gender Male, age 6 weeks
# Details: in vivo, po, route gavage; for Bas / Eos / Ht / Lym / MCH / Mono / Neu / RBC / Ret: tissue Blood; for KIDNEY_L / KIDNEY_R / KIDNEY_TOTAL: tissue Kidney; for LIVER: tissue Liver; for ALP / ALT / AST / CRE / Ca / DBIL / IP / K / LDH / Na / PL / RALB / TBIL / TC / TG / TP / gamma-GTP: tissue Plasma
# [1] = 200 mg/kg, 24 h, dose level Low
compound,measurement,setting,value
COc1cc2ncnc(Nc3ccc(F)c(Cl)c3)c2cc1OCCCN1CCOCC1 [GEFITINIB],Bas,"200 mg/kg, 3 h, dose level Low",0%
same,Eos,"200 mg/kg, 3 h, dose level Low",0.8%
same,Ht,"200 mg/kg, 3 h, dose level Low",36.1%
same,Lym,"200 mg/kg, 3 h, dose level Low",74.4%
same,MCH,"200 mg/kg, 3 h, dose level Low",20.9 pg
same,Mono,"200 mg/kg, 3 h, dose level Low",3%
same,Neu,"200 mg/kg, 3 h, dose level Low",21.4%
same,RBC,"200 mg/kg, 3 h, dose level Low",577.2 x10_4/ul
same,Ret,"200 mg/kg, 3 h, dose level Low",8.9%
same,KIDNEY_L,"200 mg/kg, 3 h, dose level Low",1 g
same,KIDNEY_R,"200 mg/kg, 3 h, dose level Low",1 g
same,KIDNEY_TOTAL,"200 mg/kg, 3 h, dose level Low",2 g
same,LIVER,"200 mg/kg, 3 h, dose level Low",9.2 g
same,ALP,"200 mg/kg, 3 h, dose level Low",1618.4 IU/L
same,ALT,"200 mg/kg, 3 h, dose level Low",52 IU/L
same,AST,"200 mg/kg, 3 h, dose level Low",82.8 IU/L
same,CRE,"200 mg/kg, 3 h, dose level Low",0.1 mg/dL
same,Ca,"200 mg/kg, 3 h, dose level Low",9.9 mg/dL
same,DBIL,"200 mg/kg, 3 h, dose level Low",0.016 mg/dL
same,IP,"200 mg/kg, 3 h, dose level Low",9.2 mg/dL
same,K,"200 mg/kg, 3 h, dose level Low",4.1 meq/L
same,LDH,"200 mg/kg, 3 h, dose level Low",220.4 IU/L
same,Na,"200 mg/kg, 3 h, dose level Low",141.6 meq/L
same,PL,"200 mg/kg, 3 h, dose level Low",147.4 mg/dL
same,RALB,"200 mg/kg, 3 h, dose level Low",3.8 g/dL
same,TBIL,"200 mg/kg, 3 h, dose level Low",0.066 mg/dL
same,TC,"200 mg/kg, 3 h, dose level Low",97 mg/dL
same,TG,"200 mg/kg, 3 h, dose level Low",39.9 mg/dL
same,TP,"200 mg/kg, 3 h, dose level Low",5.3 g/dL
same,gamma-GTP,"200 mg/kg, 3 h, dose level Low",0.9 IU/L
same,TERMINAL_BW,"200 mg/kg, 6 h, dose level Low",210.7 g
same,Bas,"200 mg/kg, 6 h, dose level Low",0%
same,Eos,"200 mg/kg, 6 h, dose level Low",0.6%
same,Ht,"200 mg/kg, 6 h, dose level Low",37.3%
same,Lym,"200 mg/kg, 6 h, dose level Low",79.4%
same,MCH,"200 mg/kg, 6 h, dose level Low",21.5 pg
same,Mono,"200 mg/kg, 6 h, dose level Low",3.6%
same,Neu,"200 mg/kg, 6 h, dose level Low",15.8%
same,RBC,"200 mg/kg, 6 h, dose level Low",579.2 x10_4/ul
same,Ret,"200 mg/kg, 6 h, dose level Low",9.1%
same,KIDNEY_L,"200 mg/kg, 6 h, dose level Low",0.9 g
same,KIDNEY_R,"200 mg/kg, 6 h, dose level Low",0.9 g
same,KIDNEY_TOTAL,"200 mg/kg, 6 h, dose level Low",1.9 g
same,LIVER,"200 mg/kg, 6 h, dose level Low",8.9 g
same,ALP,"200 mg/kg, 6 h, dose level Low",1407.4 IU/L
same,ALT,"200 mg/kg, 6 h, dose level Low",53.8 IU/L
same,AST,"200 mg/kg, 6 h, dose level Low",78.6 IU/L
same,CRE,"200 mg/kg, 6 h, dose level Low",0.2 mg/dL
same,Ca,"200 mg/kg, 6 h, dose level Low",9.9 mg/dL
same,DBIL,"200 mg/kg, 6 h, dose level Low",0.018 mg/dL
same,IP,"200 mg/kg, 6 h, dose level Low",9.6 mg/dL
same,K,"200 mg/kg, 6 h, dose level Low",4 meq/L
same,LDH,"200 mg/kg, 6 h, dose level Low",142.6 IU/L
same,Na,"200 mg/kg, 6 h, dose level Low",141.5 meq/L
same,PL,"200 mg/kg, 6 h, dose level Low",142.8 mg/dL
same,RALB,"200 mg/kg, 6 h, dose level Low",3.9 g/dL
same,TBIL,"200 mg/kg, 6 h, dose level Low",0.076 mg/dL
same,TC,"200 mg/kg, 6 h, dose level Low",93 mg/dL
same,TG,"200 mg/kg, 6 h, dose level Low",31.4 mg/dL
same,TP,"200 mg/kg, 6 h, dose level Low",5.4 g/dL
same,gamma-GTP,"200 mg/kg, 6 h, dose level Low",0.9 IU/L
same,TERMINAL_BW,"200 mg/kg, 9 h, dose level Low",210 g
same,Bas,"200 mg/kg, 9 h, dose level Low",0%
same,Eos,"200 mg/kg, 9 h, dose level Low",0.6%
same,Ht,"200 mg/kg, 9 h, dose level Low",38.5%
same,Lym,"200 mg/kg, 9 h, dose level Low",78.4%
same,MCH,"200 mg/kg, 9 h, dose level Low",20.9 pg
same,Mono,"200 mg/kg, 9 h, dose level Low",3.2%
same,Neu,"200 mg/kg, 9 h, dose level Low",17.2%
same,RBC,"200 mg/kg, 9 h, dose level Low",611 x10_4/ul
same,Ret,"200 mg/kg, 9 h, dose level Low",8.8%
same,KIDNEY_L,"200 mg/kg, 9 h, dose level Low",0.9 g
same,KIDNEY_R,"200 mg/kg, 9 h, dose level Low",0.9 g
same,KIDNEY_TOTAL,"200 mg/kg, 9 h, dose level Low",1.8 g
same,LIVER,"200 mg/kg, 9 h, dose level Low",8.6 g
same,ALP,"200 mg/kg, 9 h, dose level Low",1488 IU/L
same,ALT,"200 mg/kg, 9 h, dose level Low",48.2 IU/L
same,AST,"200 mg/kg, 9 h, dose level Low",78.4 IU/L
same,CRE,"200 mg/kg, 9 h, dose level Low",0.2 mg/dL
same,Ca,"200 mg/kg, 9 h, dose level Low",9.9 mg/dL
same,DBIL,"200 mg/kg, 9 h, dose level Low",0.01 mg/dL
same,IP,"200 mg/kg, 9 h, dose level Low",9.5 mg/dL
same,K,"200 mg/kg, 9 h, dose level Low",4.3 meq/L
same,Na,"200 mg/kg, 9 h, dose level Low",143.6 meq/L
same,PL,"200 mg/kg, 9 h, dose level Low",146 mg/dL
same,RALB,"200 mg/kg, 9 h, dose level Low",3.8 g/dL
same,TBIL,"200 mg/kg, 9 h, dose level Low",0.048 mg/dL
same,TC,"200 mg/kg, 9 h, dose level Low",93.6 mg/dL
same,TG,"200 mg/kg, 9 h, dose level Low",39 mg/dL
same,TP,"200 mg/kg, 9 h, dose level Low",5.4 g/dL
same,gamma-GTP,"200 mg/kg, 9 h, dose level Low",1.1 IU/L
same,TERMINAL_BW,[1],215.5 g
same,Bas,[1],0%
same,Eos,[1],0.8%
same,Ht,[1],40.7%
same,Lym,[1],66%
same,MCH,[1],20.6 pg
same,Mono,[1],4%
same,Neu,[1],28.6%
same,RBC,[1],635 x10_4/ul
same,Ret,[1],8.2%
same,KIDNEY_L,[1],1 g
same,KIDNEY_R,[1],1 g
same,KIDNEY_TOTAL,[1],2 g
same,LIVER,[1],9.5 g
same,ALP,[1],1548.6 IU/L
same,ALT,[1],39.6 IU/L
same,AST,[1],72.8 IU/L
same,CRE,[1],0.2 mg/dL
same,Ca,[1],10.7 mg/dL
same,DBIL,[1],0.004 mg/dL
same,IP,[1],8.6 mg/dL
same,K,[1],4.4 meq/L
same,LDH,[1],215.2 IU/L
same,Na,[1],142.9 meq/L
same,PL,[1],166 mg/dL
same,RALB,[1],4 g/dL
same,TBIL,[1],0.022 mg/dL
same,TG,[1],69.4 mg/dL
same,TP,[1],5.5 g/dL
same,gamma-GTP,[1],1.2 IU/L
same,TERMINAL_BW,"600 mg/kg, 3 h, dose level Middle",215 g
